# Measured values as given in patent US20220211792A1, “COMPOSITION CONTAINING NATURAL EXTRACTS FOR ENHANCEMENT OF INNATE IMMUNITY OR ANTIVIRAL USE AGAINST INFLUENZA VIRUS OR CORONA VIRUS” (OKCHUNDANG CO., LTD., priority 2021, published 2022).
# B1: IFN-β: mouse IFN-β (1,000 units/ml), positive control (protein, UniProt P01575 22-182, looked up)
# Interferon beta: INYKQLQLQERTNIRKCQELLEQLNGKINLTYRADFKIPMEMTEKMQKSYTAFAIQEMLQNVFLVFRNNFSSTGWNETIVVRLLDELHQQTVFLKTVLEEKQEERLTWEMSSTALHLKSYYWRVQRYLKLMKYNSYAWMVVRAEIFRNFLIIRRLTRNFQN
# What was measured:
# [1] = test system: influenza virus A/PR/8/34-GFP; format: cell-based
# IAV = format: cell-based, influenza A virus
# [2] = test system: influenza virus (A/PR/8/34-GFP); format: cell-based
molecule,measurement,setting,value
O=C(/C=C/c1ccc(O)c(O)c1)O[C@@H]1C[C@](O)(C(=O)O)C[C@@H](O)[C@H]1O [chlorogenic acid],level of GFP compared with untreated cells,[1],lower
same,levels of IAV proteins compared with untreated cells,IAV,suppressed
CC(C)=CCC[C@](C)(O[C@@H]1O[C@H](CO)[C@@H](O)[C@H](O)[C@H]1O)[C@H]1CC[C@]2(C)[C@@H]1[C@H](O)C[C@@H]1[C@@]3(C)CC[C@H](O[C@@H]4O[C@H](CO)[C@@H](O)[C@H](O)[C@H]4O[C@@H]4O[C@H](CO)[C@@H](O)[C@H](O)[C@H]4O)C(C)(C)[C@@H]3CC[C@]12C [ginsenoside Rd],level of GFP compared with untreated cells,[1],lower
same,levels of IAV proteins compared with untreated cells,IAV,suppressed
B1,GFP (influenza virus infection rate),[2],1.45
